Assay results taken from patent US7176226B2, “Crystal modification II of 2-[2-(1-chloro-cyclopropyl)-3-(2-chlorophenyl)-2-hydroxy-propyl]-2,4-dihydro-3H-1,2,4-triazole-3-thione” (Bayer Cropscience AG, priority 2002, dated 2007).

Tests used:
[1] = thermodynamic stability of the crystal forms; settings: for thermodynamic stability of the crystal form: at room temperature
[2] = particle density of the crystal forms (Ultrapyknometer, or from single crystal X-ray structural analysis); format: physicochemical; settings: for Density, calculated from SCA: calculated from single crystal X-ray structural analysis (SCA); for Density, experimental: method SOP 5024, Ultrapyknometer 1000 T
Description: A DSC Pyris 1 from Perkin Elmer was used to determine the melting points. The measurements were carried out using a heating rate of 10 K min^−1. In each case, the given melting points refer to the peak maximum under the given conditions. The Raman spectra of the crystal forms were recorded using an RFS 100/S FT-Raman from Bruker (128 scans per measurement). The particle density was determined experimentally according to method SOP 5024 for determining densities using the Ultrapyknometer 1000 T from Quanta-Chrome or theoretically from the single crystal. X-ray structural analysis (SCA). The single crystal X-ray structural analysis was carried out using a P4RA four-cycle diffractometer from Siemens with rotating anode generator, graphite monochromator, scintillation counter and low-temperature unit. Measurement was carried out using molybdenum radiation of a wavelength of 0.71073 (MoKα).

| SMILES | thermodynamic stability of the crystal form [1] | temperature below which the crystal form is stable ([1]; pressure of 1013 mbar) | Density, calculated from SCA [2] [Mg/m^3] | Density, experimental [2] [Mg/m^3] |
| --- | --- | --- | --- | --- |
| OC(Cc1ccccc1Cl)(Cn1nc[nH]c1=S)C1(Cl)CC1 (stereo not shown) [form II, 2-[2-(1-chlorocyclopropyl)-3-(2-chlorophenyl)-2-hydroxypropyl]-2,4-dihydro-3H-1,2,4-triazole-3-thione] | thermodynamically stable | below 90 °C | 1.471 | 1.43 |
| OC(Cc1ccccc1Cl)(Cn1nc[nH]c1=S)C1(Cl)CC1 (stereo not shown) [form I, 2-[2-(1-chlorocyclopropyl)-3-(2-chlorophenyl)-2-hydroxypropyl]-2,4-dihydro-3H-1,2,4-triazole-3-thione, reference compound] | metastable | – | 1.432 | 1.39 |
